The values below come from paper PMC12993615 (The journal of pain, 2024).

Some results are limits rather than exact numbers.

Data set [1] in a line: Prevention of OIPN, body weight. In kind it is in vivo, male Sprague Dawley rats. The settings on record: 10 mg/kg BID, P < .05. From the text:
(§1) Pain measurements were made on Days 5/6 (when neuropathy has normally developed) and at the end of the study. […] Terminal plasma samples were taken for bioanalysis and proteomics (Somalogic). Brain regions involved in pain processing, that is, prefrontal cortex (PFC), periaqueductal grey (PAG), whole spinal cords (SC), and L4-L6 dorsal root ganglia, were collected for lipidomic and genomic (Genewiz, China) analyses.

Data set [2] has as its system paclitaxel-induced peripheral neuropathy. The note with it: male and female rats, similar efficacy; cited from earlier work.
In data set [3] the test system is oxaliplatin-induced mechanical allodynia. Briefly: 7-day treatment of established OIPN, paw withdrawal threshold. The data set is classed as in vivo, male Sprague Dawley rats. The note with it: 25 mg/kg BID PO 7 days, across Days 7 and 14, P < .05. As for the experimental part:
(§2) Male Sprague Dawley rats (150–210 g) were housed in groups of 4 in intra-ventilated Perspex home cages. Humidity, temperature (21 ± 1 °C), and lighting (light-dark cycle of 12:12 hours) were controlled and maintained in the home cages, with food and water available ad libitum. Rats acclimatised to the home cages for at least 1 week. All experiments were carried out according to the Animals (Scientific Procedures) Act, 1986 (U.K. Government Home Office). The study was performed under the Home Office project licence number PP0847012. OIPN was established with a single dose of OXA (10 mg/kg, IP).
Body weight was monitored throughout the study, and terminal plasma and whole brain samples were taken for bioanalysis.
(§3) Tactile allodynia (primary outcome measure) was assessed using paw withdrawal threshold (PWT), a measure of pain sensitivity. PWT was evaluated using calibrated von-Frey monofilaments (Touch-Test Sensory Evaluator; Scientific Marketing Associates) applied to the plantar surface of the left hind paw. PWT was determined by increasing and decreasing stimulus intensity and estimated using Dixon’s up-down method.[38],[39]
(§4) To acquire baseline readings, pain behaviour was assessed on 3 consecutive days (Days −3, −2, −1). […] NPB expressed as a percentage change from HBL was calculated as follows (HBL-NPB)/HBL*100. […]

Data set [4] relates to oxaliplatin-induced thermal hyperalgesia. Briefly: Prevention of OIPN, cold plate latency. The settings on record: 25 mg/kg BID, P < .001. In kind it is in vivo, male Sprague Dawley rats. The method, then:
as §2
Pain measurements were made on Days 5/6 (when neuropathy has normally developed) and at the end of the study. […] Terminal plasma samples were taken for bioanalysis and proteomics (Somalogic). […]
Thermal hyperalgesia was assessed using a cold plate (Bioseb, France) set at a fixed temperature of 15 °C. Latency to the first escape behaviour from the plate was measured indicating discomfort to the thermal stimulation. […]
as §4

In data set [5] the target is T1, cathepsin G (Homo sapiens, UniProt P08311).
T1 sequence (P08311 21-255): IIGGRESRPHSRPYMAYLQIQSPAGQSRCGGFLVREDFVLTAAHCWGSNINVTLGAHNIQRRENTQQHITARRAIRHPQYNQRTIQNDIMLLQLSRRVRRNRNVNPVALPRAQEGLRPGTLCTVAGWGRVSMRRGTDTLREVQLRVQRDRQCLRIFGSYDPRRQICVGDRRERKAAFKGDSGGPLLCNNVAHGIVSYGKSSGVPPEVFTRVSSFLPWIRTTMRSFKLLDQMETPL
Briefly: Secondary pharmacology panel (87 targets). In kind it is binding. The settings on record: test concentration 30 µM. An excerpt: Findings were considered significant if ≥50% inhibition of ligand binding or ≥50% stimulation/inhibition were shown in biochemical assays. Those receptors with values ≥50% were further evaluated for binding and functional half-maximal inhibitory concentrations (IC50).

Data set [6] has as its target T2, FABP4 (Homo sapiens, UniProt P15090).
T2 construct: purchased Cayman Chemical
Briefly: FABP4 binding, commercially available kit (Cayman Chemical). The settings on record: commercial kit. As for the experimental part: Purified FABPs were incubated with 11-(dansylamino)undecanoic acid (DAUDA) (FABP3, FABP5) or 8-anilino-1-naphthalenesulfonic acid (ANS) (FABP7) in the presence or absence of FABP inhibitors (.01–200 μM) in the binding assay buffer. FABP4 binding was assessed using a commercially available kit (Cayman Chemical, Ann Arbor). In all cases, arachidonic acid (10 μM) was included to account for maximal probe displacement. Loss of fluorescence intensity was monitored with an F5 Filtermax Multi-Mode Microplate Reader (Molecular Devices, Sunnyvale) using the following excitation and emission wavelengths (DAUDA: ex./em.= 360/535 nm; ANS: ex./em. = 360/465 nm). Following background subtraction, the fluorescence intensity values were normalised and analyzed via a one-site binding model using the GraphPadPrism (version 9.2). Ki values were determined using the following equation: Ki= IC50/(1 + ([Probe]/Kd).

The nature of data set [7]: in vivo. The settings on record: both sexes, Wistar Han, rat, po, 500 mg/kg. Also on record: species or system Wistar Han rats. The method, then:
Twenty-nine male and 29 female Wistar Han rats were assigned to 7 groups (4 main and 3 toxicokinetic (TK) groups), with 5 rats/sex/group in the main groups and […] in TK groups. Dose formulations were administered twice daily by oral gavage at 100, 300, and 1,000 mg/kg/day (50, 150, and 500 mg/kg/dose) for 14 consecutive days, with a vehicle control group dosed in the same manner. Toxicity was assessed based on clinical signs, daily body weights, food consumption, organ weights, clinical, gross, and anatomic pathology.

Data set [8] concerns painful diabetic neuropathy. The settings on record: cited from earlier work.
Data set [9] concerns oxaliplatin-induced mechanical allodynia. The data set is described as follows: Prevention of OIPN, paw withdrawal threshold. In kind it is in vivo, male Sprague Dawley rats. The method, then:
as §2, §1, §3
To acquire baseline readings, pain behaviour was assessed on 3 consecutive days (Days −3, −2, −1). The mean of Day −2 and Day −1 was considered the healthy baseline (HBL) prior to OIPN induction. On Days 5 and 6 after OXA injection, thresholds were reassessed. The mean of Days 5 and 6 was considered the neuropathic baseline (NPB). Animals were then ranked and randomised (based on a Latin square design) to treatment groups according to the percentage change of the mean thresholds observed in the NPB compared to the HBL. NPB expressed as a percentage change from HBL was calculated as follows (HBL-NPB)/HBL*100. All behavioural assessment was done by an experimenter blinded to the identity of the treatment. Separate people were responsible for dosing and assessment/data analysis.

The nature of data set [10]: in vivo. The settings on record: both sexes, beagle, dog, po, 500 mg/kg. An excerpt: Examined parameters to assess toxicity included clinical observations, mortality and moribundity cheques, body weights, food consumption, electrocardiogram, TK, clinical chemistry, haematology, coagulation, urinalysis, gross pathology, organ weights, and histopathology.

T2 sequence (P15090 whole entry, species assumed): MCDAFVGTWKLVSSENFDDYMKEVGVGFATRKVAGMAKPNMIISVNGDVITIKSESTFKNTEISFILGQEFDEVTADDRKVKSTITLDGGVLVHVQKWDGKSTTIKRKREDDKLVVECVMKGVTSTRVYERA

For `COc1ccccc1[C@@H]1[C@H](C(=O)O)[C@@H](c2ccccc2OC)[C@H]1C(=O)OC1Cc2ccccc2C1` [ART26.12, (+)–3-Indan-2-yloxycarbonyl-2,4-bis(2-methoxyphenyl)cyclobutanecarboxylic acid], in data set [1], the “body weight on Day 5 versus Day 0” value is “significantly higher body weight than Day 0”. The “effect on paclitaxel-induced peripheral neuropathy” value in [2] is recorded as “prevents paclitaxel-induced peripheral neuropathy”. In [3], the “PWT scores versus vehicle” value was “significantly higher PWT scores than vehicle”. Moreover, the “cold plate latencies on Day 14 versus vehicle” value in data set [4] is given as “significantly higher cold plate latencies than the vehicle group”. Further, the “binding to cathepsin G in secondary pharmacology screening” value in data set [5] is on record as “greater than 50%”. Besides, the Ki (usually a measure of affinity in units of concentration, obtained from inhibition or displacement) in data set [6] was over 100 µM. Moreover, the NOAEL at 14 days in data set [7] and in data set [10] was 1000 mg/kg/day each time. Further, in [8], the “effect on established painful diabetic neuropathy” value was “treats established painful diabetic neuropathy”. The “PWT on Day 5/6 compared to HBL” value in data set [9] (10 mg/kg BID, P < .001) was “significantly lower PWTs”; in data set [9] (25 mg/kg BID, P < .05) it was “significantly lower PWTs”. Further, the “PWT on Day 14 compared to HBL” value in data set [9] (ART26.12 10 or 25 mg/kg BID groups) was “neither the ART26.12 nor the pregabalin groups showed significant allodynia”.
